Experiments:
Format in all cases: cell-based
MOLM13 cells = test: Cytotoxicity (WST-1 metabolic activity) towards AML cell line MOLM13; details: for EC50: Homo sapiens, MOLM-13, metabolic activity (WST-1) after 72 h of incubation, compounds diluted in DMSO, three independent experiments; for cytotoxic activity against the MOLM13 cells (in words): compared with a DMSO control, 72 hours of incubation
Experimental: (§1) The pure compounds were diluted to create stock solutions with a final concentration of 20 mM in DMSO (Dimethyl Sulfoxide—for molecular biology, Sigma-Aldrich, Saint Louise, MO, USA). Normal rat kidney epithelial cells (NRK, ATCC no.: CRL-6509) and rat cardiomyoblasts (H9c2, ATCC no.: CRL-1446) were grown in DMEM medium enriched with 10% foetal bovine serum (FBS, Invitrogen, Carlsbad, CA, USA). Once the cells achieved 80% confluence, they were gently detached using trypsin treatment (0.33 mg/mL trypsin for 5 min at 37 °C), centrifuged (160× g, 4 min), and then reseeded in fresh medium to reach 25% confluence.
The AML cell line MOLM13 (DSMZ no.: ACC554, [39]) was maintained in RPMI-1640 medium supplemented with 10% FBS and 8 mM L-glutamine (Sigma Life Science, Dorset, UK). The cells were kept in suspension cultures with a density of 150,000 to 700,000 cells/mL.
(§2) All media were further supplemented with 1 IU/mL penicillin and 1 mg/mL streptomycin (both from Cambrex, Liège, Belgium) and incubated in a humidified environment (37 °C, 5% CO2). For the cytotoxicity experiments with compounds 11 to 15, the NRK and H9c2 cells were seeded in 96-well tissue culture plates (4000 cells/well, 0.1 mL) and left overnight to attach before treatments. The MOLM13 cells were seeded in 96-well tissue culture plates at 20,000 cells/well in 0.1 mL on the day of the experiment.
(§3) Compounds dissolved in DMSO were added to the cells, and the plates were incubated for 72 hours before adding the tetrazolium salt WST-1 according to the manufacturer’s instructions (Roche Diagnostics GmbH, Mannheim, Germany). The plates were further incubated for two hours before the signal was recorded at 450 nm with reference at 620 nm. For black subtraction, medium and plant compounds were added to WST-1. This procedure was performed after 24 and 72 h.
(§4) After recording WST-1, the cells were next fixed with 2% buffered formaldehyde (pH 7.4) with 0.01 mg/mL of the DNA-specific fluorescent dye, […]. As previously described, the presence of dead (apoptotic or necrotic) cells was verified by differential interference contrast and fluorescence microscopy.
(§5) EC50 values were determined by a four-parameter regression analysis as described by Viktorsson et al., using SigmaPlot ver. 14.0 (Systat Software Inc., San Jose, CA, USA).

H9c2 cells = test: Cytotoxicity (WST-1 metabolic activity) towards rat cardiomyoblasts H9c2; details: metabolic activity (WST-1) after 72 h of incubation, compounds diluted in DMSO, three independent experiments
Experimental: as §1, with “confluence. […]” for “confluence.”
as §3, with “For black subtraction, medium and plant compounds were added to WST-1. This procedure was performed after 24 and 72 h.” left out
as §4
EC50 values were determined by a four-parameter regression analysis as described by Viktorsson et al., using SigmaPlot ver. […]

NRK cells = test: Cytotoxicity (WST-1 metabolic activity) towards normal rat kidney epithelial cells NRK; details: for EC50: Rattus norvegicus, NRK, metabolic activity (WST-1) after 72 h of incubation, compounds diluted in DMSO, three experiments, "-" = no data available due to low or no toxicity
Experimental: as §1, §2, §3, §4, §5

Structure (SMILES) | cytotoxic activity against the MOLM13 cells (in words) (MOLM13 cells) | other results
CC(O)C1C=CC(=O)O1 (centres unmarked) [Compound 11, 5-hydroxy-2-hexen-4-olide] | significant cytotoxic activity | EC50 (MOLM13 cells): 46.2 ± 0.07 µM; EC50 (H9c2 cells): 48.7 ± 0.18 µM; EC50 (NRK cells): 49.6 ± 0.11 µM
CC1=CC(=O)CC(C)(C)C1CCC(C)O[C@@H]1O[C@H](CO)[C@@H](O)[C@H](O)[C@H]1O (stereo partly drawn) [Compound 14, blumenol C 9-O-β-glucopyranoside] | Only compounds 11 and 15, which are γ- and δ-lactones, respectively, exhibited significant cytotoxic activity | 
CC(O)C(=O)CCC(=O)OC1C=CC(=O)OC1C (centres unmarked) [Compound 15, 4-O-(5-hydroxy-4-oxohexanoyl) osmundalactone] | significant cytotoxic activity | EC50 (MOLM13 cells): 111.9 ± 0.07 µM; EC50 (H9c2 cells): 102.7 ± 0.12 µM; reduced metabolic activity in the NRK cells at the highest concentration tested (NRK cells; 200 μM, 72 h): did not detect reduced metabolic activity; EC50 (NRK cells): > 200 µM
CC1OC(OC2C(OC3C(Oc4c(-c5ccc(O)cc5)oc5cc(O)cc(O)c5c4=O)OC(CO)C(O)C3O)OC(CO)C(O)C2O)C(O)C(O)C1O (stereo not drawn) [Compound 2, kaempferol 3-O-(2’’-O-(2’’’-α-rhamnopyranosyl)-β-glucopyranosyl)-β-glucopyranoside] | Only compounds 11 and 15, which are γ- and δ-lactones, respectively, exhibited significant cytotoxic activity | 
CC(O)C1OC(=O)C(C2CC(=O)OC(C)C2O)C1O [Compound 13, (4R,5S,3’S,1’’S,4’R)-4-hydroxy-3-(3’-hydroxy-4’-(1-hydroxyethyl)-oxotetrahydrofuran-5-methyltetrahydropyranone] | Only compounds 11 and 15, which are γ- and δ-lactones, respectively, exhibited significant cytotoxic activity | 
COc1cc(C2OC2CO)ccc1O (centres unmarked) [Compound 10, epoxyconiferyl alcohol] | Only compounds 11 and 15, which are γ- and δ-lactones, respectively, exhibited significant cytotoxic activity | 
COc1cc(C2Oc3c(OC)cc(CCCO)cc3[C@H]2CO)ccc1O[C@@H]1O[C@@H](C)[C@H](O)[C@@H](O)[C@H]1O (stereo partly drawn) [Compound 8, (7R,8S)-dihydrodehydrodiconiferyl alcohol 4-O-α-rhamnopyranoside] | Only compounds 11 and 15, which are γ- and δ-lactones, respectively, exhibited significant cytotoxic activity | 
CO[C@H]1CC(=O)O[C@@H]1C(C)O (some centres unmarked) [Compound 12, 3-methoxy-5-hydroxy-4-olide] | Only compounds 11 and 15, which are γ- and δ-lactones, respectively, exhibited significant cytotoxic activity | 
CC1OC(OC2C(OC3C(Oc4c(-c5ccc(O)cc5)oc5cc(O)cc(O)c5c4=O)OC(CO)C(O)C3O)OC(COC(=O)C=Cc3ccc(O)c(O)c3)C(O)C2O)C(O)C(O)C1O (stereo not drawn) [Compound 6, kaempferol 3-O-(2’’-O-(2’’’-O-α-rhamnopyranosyl-6’’’-O-(E)-caffeoyl-)-β-glucopyranosyl)-β-glucopyranoside] | Only compounds 11 and 15, which are γ- and δ-lactones, respectively, exhibited significant cytotoxic activity | 
CC1OC(OC2C(OC3C(Oc4c(-c5ccc(O)c(O)c5)oc5cc(O)cc(O)c5c4=O)OC(CO)C(O)C3O)OC(CO)C(O)C2O)C(O)C(O)C1O (stereo not drawn) [Compound 3, quercetin 3-O-(2’’-O-(2’’’-α-rhamnopyranosyl)-β-glucopyranosyl)-β-glucopyranoside] | Only compounds 11 and 15, which are γ- and δ-lactones, respectively, exhibited significant cytotoxic activity | 
